Measured values reported in patent US7776572B2, “Method for reducing loss of enzyme activity during storage” (Corning Incorporated, priority 1996, dated 2010).
Read-outs that look alike come from different tables or passages of the source.

What was measured:
rat = settings: cited from earlier work
Horse IgG = assay: Protein binding by colloidal gold staining, coated medium binding polystyrene plates; settings: coated medium binding PS; IgG 10 μg/ml, pH 9.4
Procedure: Except where indicated, the non-ionic surfactants were applied to the hydrophobic surfaces being tested as a 0.1% (weight/volume) solution in isopropanol. A sufficient amount of coating solution was used to cover the surface being testing with a thin layer of the solution (e.g., 25 μl of the solution per well for a standard 24-well plate). In some cases, the solution was applied to surface by spraying; in others, it was poured onto the surface (into the well). Except where indicated, coated samples were either dried at 70° C. for 30 minutes in an air circulated oven or dried at room temperature overnight to evaporate the isopropanol.
Protein binding was determined in some examples using a colloidal gold straining procedure. In accordance with this procedure, colloidal gold becomes electrostatically attached to bound protein and is detected by measuring absorbance at 550 nanometers. Bio-Rad Laboratories' Colloidal Gold Total Protein Stain was used for this purpose, with absorbance being measured with a Cambridge Technologies Plate Reader (No. 7520).
The surfactants were coated onto medium binding polystyrene plates (Corning Costar No. 2587) as described in Material and Methods.
The plates were incubated with IgG as follows: 0.1 ml of Horse IgG (Pierce Labs) at a working concentration of 10 μg/ml in 0.10M NaHCO3 buffer (pH9.4) were added to each well, incubated 30 minutes on a rocker table, and rinsed with dI H2O. The plates were gold stained overnight (0.3 ml/well), rinsed in dI H2O, air dried, and absorbance was measured at 550 nm.

BSA = assay: Polymer blends molded into petri dishes, BSA binding by colloidal gold; settings: for BSA or FBS protein binding: blend in polypropylene or EVA
Procedure: Low binding non-ionic surfactant molecules were blended at 5% (except as noted in Table 13) into a base polymer using a twin screw extruder, then injection molded into the shape of 35 mm petri dishes. Proteins tested were BSA and Fetal Bovine Serum (FBS). Protein binding was determined using a colloidal gold staining procedure as described above. In the case of the polypropylene and EVA blends, a silver enhancer was used (Sigma Chem. Co., St, Louis, Mo., Kit #SE-100).

[1] = test system: ^125I-IgG (goat anti-mouse); assay: Radiometric determination of IgG binding to surfactant-coated polystyrene microtiter wells; settings: for Total IgG binding, Non-Sterilized: coated polystyrene wells; for Total IgG binding, Non-Sterilized / Tight IgG binding, Non-Sterilized: not sterilized; for Total IgG binding, Non-Sterilized / Total IgG binding, Sterilized: after three PBS washes; for Total IgG binding, Sterilized / Tight IgG binding, Sterilized: gamma sterilized (1.5 Mrad); for Tight IgG binding, Sterilized / Tight IgG binding, Non-Sterilized: after two hours in PBS-Tween (0.05%)
Procedure: The hydrophobic surfaces used were flat bottom microtiter plates composed of high binding polystyrene (Corning Costar No. 2581) and medium binding polystyrene (Corning Costar No. 2587). Testing was performed with and without gamma radiation sterilization using cobalt 60 (1.5 Mrad).
The surfactants were applied to the test plates as described in Materials and Methods, followed by sterilization where indicated.
Levels of protein binding were determined using a radiolabeled protein, namely, ^125I-IgG (goat anti-mouse) purchased from DuPont/NEN. Unlabeled IgG in sodium carbonate buffer pH 9.2 was spiked with ^125I-IgG so that the final concentration of labeled IgG and cold IgG in the test solution was 10 μg/mL.
Aliquots of 0.1 milliliters of the protein solution were placed in quadruplicate in the wells of 8-well strips removed from the test microtiter plates. The wells were incubated overnight at 4° C. with shaking. The supernatants were removed from the wells, followed by three washes with 0.2 mL of PBS. The wells were then dried and individually counted to determine “total” IgG binding. After determining “total” binding, the wells were incubated for two hours in 0.2 mL of PBS-Tween (0.05%) at room temperature with shaking. The supernatants were removed from the wells followed by three washes with 0.2 mL of PBS. The wells were dried and individually counted to determine “tight” IgG binding.
Untreated high binding and medium binding plates were used as controls. A comparative experiment was also performed in which a BSA protein coating was used in place of a surfactant coating. The BSA was preabsorbed onto the walls of the wells and then washed to remove excess material. Testing was then performed using the radiolabeled IgG solution as described above.
Radiolabel measurements were performed in a double blind study at BioMolecular Assays (Woburn, Mass.). IgG binding values per microwell were converted to ng/cm^2 values using a surface area of 0.94 cm^2 for a 0.1 mL volume.

MDCK cells = assay: Cytotoxicity of extracts of coated plates; type: cell-based; settings: media extract of coated plates (37° C., 48 hours), MDCK 72 hours, Gram Crystal Violet
Procedure: Cytotoxicity experiments were performed using MDCK cells. The non-ionic surfactants tested were Pluronic L-121, L-122, and P-123; Span 80 and 85; and Brij 30, 72 and 93. These molecules were coated onto 24-well plates (Corning Costar #9447) from 0.1% (w/v) in isopropanol. Untreated polystyrene and normal tissue culture treated polystyrene (Corning Costar #25820) 24-well plates were used as controls. All plates were incubated at 37° C. for 48 hours with 2 ml/well of complete DMEM media containing 10% Fetal Bovine Serum (FBS). This incubation was performed in order to extract any potentially toxic compounds from the coated surface into the cell growth serum. The FBS solutions were then transferred to tissue culture treated polystyrene and each well was inoculated with ≈2×10^4 cells/well of MDCK cells, and then incubated at 37° C. for 72 hours in a 5% CO2 atmosphere. Cells were then stained with Gram Crystal Violet.

IgG (horse) = assay: IgG binding to 24-well plates, surfactant dried or not dried before H2O rinse, colloidal Au; settings: 0.5% surfactant in H2O/isopropanol (90/10); for Absorbance (550 nm) Dried before H2O rinse: then rinsed 5x; for Absorbance (550 nm) H2O rinsed before drying: not dried, rinsed 5x immediately
Procedure: Duplicate 24-well plates were prepared as follows. Individual wells were filled with 3 ml of non-ionic surfactants at 0.5% (weight/volume) in H2O/isopropanol (90/10 weight/volume).
The duplicate plates were incubated for 30 minutes at room temperature on a rocker table and then emptied. One plate was tapped out and then allowed to dry at room temperature in a hood. It was then rinsed 5× with dI H2O. The second plate was not allowed to dry, but instead was immediately rinsed 5× with H2O. The plates were then tested for protein binding by filling each well with 0.5 ml of IgG (horse) at 10 μg/ml in PBS buffer and incubating for 30 minutes on a rocker table at room temperature. The plates were then rinsed with dI H2O and stained overnight with colloidal Au.

[2] = test system: GAM-IgG-HRP (goat-anti-mouse-IgG-horseradish peroxidase enzyme labeled antibody); assay: Bound enzyme labeled antibody on strips exposed to aqueous surfactant, rinsed or not rinsed, ABTS readout; settings: 0.1% surfactant in H2O/isopropanol (95/5), not dried, rinsed 5x with dI H2O
Procedure: Medium binding (catalog #2587) and high binding (catalog #2581) polystyrene 96-well plates (8-well strips) manufactured by Corning Costar were used as follows. […] Strips were incubated for 30 minutes at room temperature on a rocker table. Strips were then emptied and tapped out. […] Immediately following this procedure, each well was aliquoted 0.10 ml of GAM-IgG-HRP (goat-anti-mouse-IgG-horseradish peroxidase enzyme labeled antibody; Kirkegaard and Perry, Gaithersburg, Md., Catalog #074-1806) at 1.0 μg/ml in PBS buffer pH=7.4). Strips were incubated for one hour at room temperature on a rocker table. Strips were then rinsed 5× with PBS buffer containing 0.02% Tween-20 followed by post rinsing with H2O. […] Absorbance at 405 nm was measured on a Cambridge Technologies #7520 Plate Reader.

[3] = blended at 1% into ethylene vinyl acetate
[4] = blended at 5% into ethylene vinyl acetate, silver enhancer
[5] = blended at 5% into polypropylene, silver enhancer

Compound	LD50 (rat) [grams/Kg]	IgG Protein Binding Absorbance (550 nm) (Horse IgG)	BSA or FBS protein binding (BSA)	Bound Protein Absorbance (550 nm) BSA (BSA; [3])	Bound Protein Absorbance (550 nm) BSA (BSA; [4])	Bound Protein Absorbance (550 nm) BSA (BSA; [5])	Total IgG binding, Non-Sterilized [1] [ng/cm^2]	Total IgG binding, Sterilized [1] [ng/cm^2]	Tight IgG binding, Sterilized [1] [ng/cm^2]	Tight IgG binding, Non-Sterilized [1] [ng/cm^2]	cell growth and morphology (MDCK cells)	LD50 (rat; in vivo) [grams/Kg]	Absorbance (550 nm) Dried before H2O rinse (IgG (horse))	Absorbance (550 nm) H2O rinsed before drying (IgG (horse))	Absorbance (405 nm) High Binding Polystyrene Rinsed [2]	Absorbance (405 nm) Medium Binding Polystyrene Rinsed [2]	Bound Protein Absorbance (550 nm) BSA (BSA; blended at 5% into polystyrene)
SORBITOL MONO-OLEATE	>39	0.00	no detectable	0.147	0.000	0.000	31	33	5	7	confluent cell growth with normal cell morphology	–	–	–	–	–	–
CCCCCCCCCCCCOCCOCCOCCOCCO [PEO(4) LAURYL ETHER]	–	0.00	–	–	–	–	2	10	4	2	confluent cell growth with normal cell morphology	>5	0.08-0.10	0.13-0.16	2.10	1.90	–
CCCCCCCC/C=C\CCCCCCCCOCCOCCO [PEO(2) OLEYL ETHER]	–	0.00	no detectable	0.000	0.000	0.000	7	22	4	5	confluent cell growth with normal cell morphology	–	0.00	0.14-0.16	2.10	1.90	0.007
PEO(4) SORBITOL MONO-STEARATE	–	0.00	–	–	–	0.016	37	130	80	18	–	–	–	–	–	–	–
PEO(20) SORBITOL TRI-STEARATE	–	0.00	–	–	–	–	5	7	4	2	–	–	–	–	–	–	–
